Patent publication US7074773B2, “Pharmaceutical composition for diabetic neuropathy” (priority 2001, dated 2006)
Where a name gives a salt, the structure may show the parent alone.

Tests used:
[1] = system: streptozotocin-induced diabetic mice; experiment: Charcoal powder transportability test of gastrointestinal tract using diabetic mice; type: in vivo, male ICR mice; conditions: diabetes group
Experimental: Test: Charcoal Powder Transportability Test of Gastrointestinal Tract Using Diabetic Mice (in vivo)
Streptozotocin (200 mg/kg) dissolved in citrate buffer (pH 4.5) was intraperitoneally administered to male ICR mice (7–11 per group, body weight: about 20 g) to induce diabetes.
CDP-choline Na was dissolved in distilled water and orally administered at a dose of 100 mg/kg. once a day from immediately after induction of diabetes.
The mice that had undergone streptozotocin administration 8 weeks before were used for the test. A 5% activated charcoal powder suspension was prepared using 0.5% aqueous carboxymethylcellulose solution, and orally administered at 0.1 ml/mice to mice fasted from the previous day. After 30 min, the gastrointestinal tract from pyloric portion of stomach to rectum was enucleated and the whole length was measured. In addition, the position of the activated charcoal powder after movement was confirmed and the distance of movement from pyloric portion of stomach was measured. This was converted to numerical values based on the whole length of from pyloric portion of stomach to rectum as 100%, and the data was processed and taken to show charcoal powder transportability of gastrointestinal tract.
How the charcoal powder transportability of gastrointestinal tract changed in the diabetes group as compared to the normal group and the results with administration of 100 mg/kg of CDP-choline to the diabetes group are shown in Table 1. In Table 1, the normal group, diabetes group and diabetes+CDP-choline administration group were divided into three criteria of less than 40%, not less than 40% and less than 60%, and not less than 60% of charcoal powder transportability of gastrointestinal tract, and the number of incidents in each criterion is shown in percentage.

[2] = system: streptozotocin-induced diabetic mouse; experiment: Assessment (threshold analysis) of thermal nociceptive response, tail-flick test, using diabetic mouse; type: in vivo, male ICR mice
Experimental: Test: Assessment (Threshold Analysis) of Thermal Nociceptive Response Using Diabetic Mouse (in vivo)
This test was performed according to the method of Osawa and Kamei [Eur. J. Pharmacol., 372, 221–228 (1999)]. […]
The assessment was performed using a tail-flick test. To be specific, photothermic stimulation was given to the tail of mouse, and the reaction latency until it moves the tail feeling the heat was measured. How the reaction latency changed in the diabetes group as compared to the normal group and the results with administration of 100 mg/kg of CDP-choline to the diabetes group are shown in FIG. 1.
(See the Method of Osawa and Kamei [Eur. J. Pharmacol., 372, 221–228 (1999)])
Streptozotocin (200 mg/kg) dissolved in citrate buffer (pH 4.5) was administered into the tail vein of male ICR mice (12–13 per group, body weight: about 20 g) to induce diabetes. […]
The assessment was performed using a tail-flick test.
Test: Assessment (Threshold Analysis) of Thermal Nociceptive Response Using diabetic Mice (in vivo)
CDP-choline Na was dissolved in distilled water and orally administered at a dose of 100 mg/kg once a day starting from the time point when 8 weeks passed from the administration of streptozotocin. […]

[3] = system: diabetic neuropathy patients; conditions: Phase III controlled clinical trial; cited from earlier work
[4] = system: peripheral neuropathy induced by taxol; conditions: reported in WO 00/11952; cited from earlier work
[5] = 100 mg/kg oral once a day from induction, 8 weeks after streptozotocin

C[N+](C)(C)CCOP(=O)(O)OP(=O)([O-])OC[C@H]1O[C@@H](n2ccc(N)nc2=O)[C@H](O)[C@@H]1O [CDP-choline, cytidine 5′-diphosphocholine monosodium salt]
inhibition of degradation of charcoal powder transportability of gastrointestinal tract ([1]; 100 mg/kg oral): complete inhibition | incidence of mice with charcoal powder transportability of gastrointestinal tract less than 40% [1, 5]: 0% | incidence of mice with charcoal powder transportability of gastrointestinal tract not less than 40% and less than 60% [1, 5]: 71.4% | incidence of mice with charcoal powder transportability of gastrointestinal tract not less than 60% [1, 5]: 28.6% | reaction latency prolongation-inhibitory effect ([2]; 100 mg/kg oral from 8 weeks post-streptozotocin, at the lapse of 11 weeks after streptozotocin): significant reaction latency prolongation-inhibitory effect was observed | inhibitory effect on prolongation of reaction latency (diminished sensation of the sensory nerves) ([2]; Example 5, oral once a day from 5 weeks post-streptozotocin, 100 mg/kg, FIG. 3 at 7 weeks, similar at 6 or 8 weeks): nearly completely inhibited | effect on prolongation of reaction latency ([2]; diabetes group, 30 mg/kg oral, from 5 weeks post-streptozotocin, data not shown): a similar effect was observed | inhibition of prolongation of reaction latency (diminished sensation) ([2]; diabetes group, 100 mg/kg oral once a day from 5 weeks post-streptozotocin, FIG. 2): almost completely inhibited | inhibition of biphasic neuropathy (reaction latency, tail-flick) ([2]; diabetes group, 100 mg/kg oral once a day from immediately after induction of diabetes, FIG. 1): almost completely inhibited | effect on reaction latency (tail-flick) ([2]; diabetes group, 300 mg/kg oral, from immediately after induction of diabetes): a similar effect was found | effect on reaction latency (tail-flick) in normal group ([2]; normal group, 100 or 300 mg/kg): no effect on the reaction latency

Cc1cccc(C)c1OCC(C)N (stereo not shown) [mexiletine hydrochloride]
spontaneous pain relieving rate [3]: not more than 50%

CC(=O)OC[C@H]1O[C@@H](n2ccc(=O)[nH]c2=O)[C@H](OC(C)=O)[C@@H]1OC(C)=O [triacetyluridine]
efficacy for peripheral neuropathy (diminished sensation) induced by taxol [4]: effective
